Data published in ChEMBL document CHEMBL1201862, “PubChem BioAssay data set” (2004).
The source made the active and inactive calls.

Columns and labels:
Protein Rev [1] = target: Protein Rev (Human immunodeficiency virus type 1 group M subtype B (isolate HXB2)(HIV-1), UniProt P04618); test: inhibitors of Rev binding to RRE RNA, dose response, biochemical, fluorescence polarization, HIV-1 (AID 434976); parameters: species or system Human immunodeficiency virus 1
[2] = target: T1, Zinc finger protein mex-5 (Caenorhabditis elegans, UniProt Q9XUB2); test: MEX-5/TCR-2 RNA interaction inhibitors, dose response, biochemical, C. elegans, fluorescence polarization (AID 1960)
T1 sequence (Q9XUB2 whole entry): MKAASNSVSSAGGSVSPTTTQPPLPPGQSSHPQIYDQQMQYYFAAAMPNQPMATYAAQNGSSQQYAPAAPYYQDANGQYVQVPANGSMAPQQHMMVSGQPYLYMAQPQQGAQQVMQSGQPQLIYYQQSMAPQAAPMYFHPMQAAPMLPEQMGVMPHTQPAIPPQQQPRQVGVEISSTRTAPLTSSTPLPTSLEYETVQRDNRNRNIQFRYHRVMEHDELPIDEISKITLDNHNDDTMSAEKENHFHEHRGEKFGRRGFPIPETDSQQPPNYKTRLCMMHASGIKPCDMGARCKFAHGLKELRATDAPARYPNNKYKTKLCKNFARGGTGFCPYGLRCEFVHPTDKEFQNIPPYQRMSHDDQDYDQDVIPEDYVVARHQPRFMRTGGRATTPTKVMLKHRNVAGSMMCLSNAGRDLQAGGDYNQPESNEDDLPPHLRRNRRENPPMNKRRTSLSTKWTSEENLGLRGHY

[3] = target: T2, RNA-binding protein pos-1 (Caenorhabditis elegans, UniProt G5EF15); test: inhibitors of POS-1/mex-3 RNA binding, dose response, biochemical, fluorescence polarization (AID 1964);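 note: purified POS-1 fused to maltose binding protein made in E. coli; potency of compounds blocking POS-1 binding to fluorescent RNA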
T2 sequence (G5EF15 whole entry): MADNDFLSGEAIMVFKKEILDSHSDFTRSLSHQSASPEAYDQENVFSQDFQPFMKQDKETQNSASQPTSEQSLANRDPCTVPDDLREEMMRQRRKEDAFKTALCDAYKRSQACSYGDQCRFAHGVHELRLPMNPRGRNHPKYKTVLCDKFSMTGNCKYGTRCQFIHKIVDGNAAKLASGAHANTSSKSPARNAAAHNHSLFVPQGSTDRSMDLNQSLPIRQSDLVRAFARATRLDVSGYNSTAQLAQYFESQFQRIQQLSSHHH

[4] = target: Female germline-specific tumor suppressor gld-1 (Caenorhabditis elegans, UniProt Q17339); test: inhibitors of GLD-1 binding to TGE RNA, dose response, biochemical, fluorescence polarization, C. elegans (AID 2802);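 note: fluorescence polarization of labeled TGE RNA bound by purified gld-1 protein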
[5] = cytotoxicity in HEK-293T cells, dose response, cytotoxicity control for TCR NF-kB inhibitor project, luminescence, T-cell screen hits (AID 489026); format: functional, cell-based;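 note: cells exposed to compound about 14 hours before the viability readout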
[6] = target: Neuropeptides B/W receptor type 1 (Homo sapiens, UniProt P48145); test: Fluorescence-based dose response cell-based high throughput screening assay to identify antagonists of the G-protein coupled receptor 7 (GPR7). [Related pubchem assays: 1952 (Screening assay (GPR7 antagonists).), 1880 (Summary AID.)]; format: functional
[7] = target: T3, Heat shock factor protein 1 (Mus musculus, UniProt P38532); test: inhibition of MG132-induced HSE-luciferase signal, confirmation, cell-based, NIH3T3, luminescence, dose retest (AID 2382); format: functional;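 note: NIH3T3 fibroblasts with HSF1-driven luciferase reporter stressed by proteasome inhibitor MG132; luminescence from HSF1-driven luciferase expression after 8 hours of MG132 stress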
T3 sequence (P38532 whole entry): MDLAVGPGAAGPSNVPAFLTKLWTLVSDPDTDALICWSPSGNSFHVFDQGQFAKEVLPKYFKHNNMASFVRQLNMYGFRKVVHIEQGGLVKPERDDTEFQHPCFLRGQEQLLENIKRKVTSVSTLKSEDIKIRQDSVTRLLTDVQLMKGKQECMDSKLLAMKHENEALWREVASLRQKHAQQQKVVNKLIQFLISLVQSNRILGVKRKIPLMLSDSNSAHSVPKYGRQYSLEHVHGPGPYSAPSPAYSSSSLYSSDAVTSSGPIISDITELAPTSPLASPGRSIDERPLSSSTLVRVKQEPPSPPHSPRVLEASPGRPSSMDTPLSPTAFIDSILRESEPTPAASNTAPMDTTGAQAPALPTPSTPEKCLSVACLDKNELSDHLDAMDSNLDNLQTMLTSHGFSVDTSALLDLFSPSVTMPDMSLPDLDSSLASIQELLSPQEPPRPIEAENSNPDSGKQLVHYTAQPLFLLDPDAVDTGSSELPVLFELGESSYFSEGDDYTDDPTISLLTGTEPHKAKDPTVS

[8] = target: Melanin-concentrating hormone receptor 1 (Homo sapiens, UniProt Q99705); test: Fluorescence-based counterscreen for antagonists of the G-protein coupled receptor 7 (GPR7): cell-based high throughput dose response assay to identify antagonists of the melanin-concentrating hormone receptor 1 (MCHR1).; format: functional
[9] = target: Scavenger receptor class B member 1 (Mus musculus, UniProt Q61009); test: inhibitors of SR-BI mediated HDL lipid uptake, dose response, ldlA[mSR-BI] cells, fluorescence, cherry pick (AID 493194); format: functional, cell-based;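 note: cellular uptake of fluorescent DiI-labeled HDL measured as cell fluorescence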
[10] = target: Heat shock protein HSP 90-alpha (Homo sapiens, UniProt P07900); test: Luminescence-based dose response biochemical high throughput screening assay for inhibitors of the Heat Shock Protein 90 (HSP90). [Related pubchem assays: 1831 (Summary AID.), 1846 (Confirmation screen.), 1789 (Primary screen.)]
[11] = cytotoxicity in HEK-293T cells, dose response, cytotoxicity control for BCR NF-kB inhibitor project, luminescence, B-cell screen hits (AID 489021); format: functional, cell-based;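 note: HEK-293T cells carrying an NF-kB luciferase reporter; cells exposed to compound for about 14 hours before viability readout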
[12] = inhibitors of clade B AD8 Env fusion, dose response, cell-based, cherry-pick (AID 652062); format: functional;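 note: luciferase signal from cell-cell fusion driven by HIV-1 clade B AD8 Env; potency is for inhibitors of fusion seen as a drop in luminescence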
[13] = inhibitors of HIV Env-driven cell fusion, dose response, cherry-pick (AID 652057); format: functional, cell-based
[14] = target: T4, Luciferin 4-monooxygenase (Photinus pyralis, UniProt P08659); test: Counter Screen for Luciferase-based Assay Positives. [Related pubchem assays: 620, 618, 411 ]
HT-1080 = test: cytotoxicity in HT1080 fibrosarcoma cells, cell-based, fluorescence readout (AID 620); format: functional; conditions: Homo sapiens
[15] = target: T4, Luciferin 4-monooxygenase; test: In vitro luciferase assay using purified luciferase. [Related pubchem assays: 1299, 1270, 1295, 1375, 1287, 1281, 1293, 1291, 1289, 1280, 465, 1364, 1282, 1372, 1365, 1370, 1367, 1366, 1266, 1373, 1292, 1290, 1302, 1371, 1283, 1271, 1294, 1374, 1368, 1369 ]
[16] = target: Glyceraldehyde-3-phosphate dehydrogenase (Homo sapiens, UniProt P04406)
HEK293 [17] = test: Cytotoxicity assay in HEK293 cells. [Related pubchem assays (depositor defined):AID1266, AID1269, AID1270, AID1271, AID1280, AID1281, AID1282, AID1283, AID1287, AID1289, AID1290, AID1291, AID1292, AID1293, AID1294, AID1295, AID1299, AID1302, AID1364, AID1365, AID1366, AID1367, AID1369, AID1370, AID1371, AID1372, AID1373, AID1374, AID1375, AID1384 …; format: functional, cell-based; conditions: Homo sapiens
HEK293 [18] = test: PMA/Ionomycin induced NF-kB luciferase assay in 293- NF-kB-Luc stable cells. [Related pubchem assays: 1299, 1270, 1295, 1375, 1287, 1281, 1293, 1291, 1289, 1280, 465, 1364, 1282, 1372, 1365, 1370, 1367, 1366, 1269, 1373, 1292, 1290, 1302, 1371, 1283, 1271, 1294, 1374, 1368, 1369 ]; format: functional, cell-based; conditions: Homo sapiens
[19] = off-target signal loss in HeLa-CEM21 co-culture – HeLa F-luc CTL cells, cherry-picked, counter-screen for HIV-1 Env fusion inhibitor project, dose response (AID 652040); format: functional, cell-based;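 note: potency for signal decrease marking cytotoxic or nonspecific inhibition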
[20] = target: T5, Protein phosphatase methylesterase 1 (Homo sapiens, UniProt Q9Y570); test: Late stage results from the probe development effort to identify inhibitors of the protein methylesterase PME-1: Gel-based Activity-Based Protein Profiling (ABPP) IC50: Purified enzyme.; format: functional
[21] = target: T5, Protein phosphatase methylesterase 1; test: PME-1 inhibitor potency by in-gel ABPP, dose response, selectivity assay for PME-1 inhibitor project, cell lysate, mouse brain cytosol, FP-rhodamine, panel member PME-1 Assay Panel member description: Inhibition of endogenously expressed PME-1 (AID 2366)
Fatty acid synthase [22] = target: T6, Fatty acid synthase (Homo sapiens, UniProt P49327); test: FAS thioesterase domain inhibitors, dose response, biochemical, kinetic fluorescence intensity (AID 624326); format: functional;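 note: rate of fluorescence rise from hydrolysis of a fluorogenic O-methyl fluorescein ester substrate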
Fatty acid synthase [23] = target: T6, Fatty acid synthase; test: FAS thioesterase domain inhibitors, dose response, biochemical, endpoint fluorescence intensity, uHTS hits (AID 624327); format: functional;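 note: fluorescence from hydrolysis of an O-methyl fluorescein acyl ester substrate by the enzyme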
[24] = target: Neurotensin receptor type 1 (Homo sapiens, UniProt P30989); format: functional;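 note: Image-based confirmatory dose-response assay measuring agonist activity at NTR1; NTR1-expressing U2OS osteosarcoma cells imaged for beta-arrestin GFP spot formation; agonist potency where compounds increase beta-arrestin recruitment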
[25] = THP-1 cell cytotoxicity, dose response, cytotoxicity control for non-replicating M. tuberculosis project (AID 489025); format: functional
[26] = Vero E6 cell cytotoxicity, dose response, cytotoxicity control for non-replicating M. tuberculosis project, secondary assay (AID 492998); format: functional, VeroE6; conditions: Vero C1008
[27] = cytotoxicity toward NIH3T3 fibroblasts, dose response, counter-screen, cell-based, ATP luminescence, mouse fibroblasts (AID 2010); format: functional;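 note: cells exposed to compound for about 90 hours before reading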
[28] = target: Voltage-dependent T-type calcium channel subunit alpha-1H (Homo sapiens, UniProt O95180); format: functional;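 note: channel activity triggered by adding a high calcium stimulation buffer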
cells = format: functional
[29] = target: Serine/threonine-protein phosphatase (Homo sapiens, UniProt Q9BPW0); test: Counterscreen for inhibitors of PP1: fluorescence-based biochemical high throughput dose response assay to identify inhibitors of Protein Phosphatase 5 (PP5). [Related pubchem assays: 2034 (Summary (PP5 inhibitors)), 1987 (PP5 inhibitors in singlate), 2235 (PP1 inhibitors in singlate)]
[30] = target: Serine/threonine-protein phosphatase PP1-alpha catalytic subunit (Homo sapiens, UniProt P62136); test: PP1 phosphatase inhibitors, dose response, biochemical, fluorescence (AID 2403);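 note: phosphatase turnover of OMFP into fluorescent 3-O-methylfluorescein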
Nonstructural protein 1 = Nonstructural protein 1 (Influenza A virus, UniProt Q194T2); format: functional, Influenza A virus (A/California/07/2009(H1N1))
[31] = inhibitors of intracellular T. cruzi replication, confirmation, NIH3T3 host cells, beta-gal luminescence (AID 2044); format: functional, cell-based;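 note: intracellular parasites grown in NIH/3T3 mouse fibroblasts as host cells; luminescent beta-galactosidase reporter signal from transgenic T. cruzi replicating inside host cells; inhibitors lower the luminescence signal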
[32] = cytotoxicity in KRAS-transformed pancreatic duct cells, primary screen, cell-based, fluorescence, HTS (AID 431); format: functional; conditions: Homo sapiens;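 note: cell line used: HPDE-C7K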
Protein Rev [33] = target: Protein Rev (Human immunodeficiency virus type 1 group M subtype B (isolate WMJ22)(HIV-1), UniProt P05866); test: HIV-1 Rev-RRE RNA binding disruptors, dose response, biochemical, protein-RNA interaction (AID 842); parameters: species or system Human immunodeficiency virus 1
[34] = cytotoxicity in HPDE-C7 cells, cell-based, fluorescence, HTS (AID 430); format: functional; conditions: Homo sapiens

Chain of Glyceraldehyde-3-phosphate dehydrogenase (P04406 whole entry): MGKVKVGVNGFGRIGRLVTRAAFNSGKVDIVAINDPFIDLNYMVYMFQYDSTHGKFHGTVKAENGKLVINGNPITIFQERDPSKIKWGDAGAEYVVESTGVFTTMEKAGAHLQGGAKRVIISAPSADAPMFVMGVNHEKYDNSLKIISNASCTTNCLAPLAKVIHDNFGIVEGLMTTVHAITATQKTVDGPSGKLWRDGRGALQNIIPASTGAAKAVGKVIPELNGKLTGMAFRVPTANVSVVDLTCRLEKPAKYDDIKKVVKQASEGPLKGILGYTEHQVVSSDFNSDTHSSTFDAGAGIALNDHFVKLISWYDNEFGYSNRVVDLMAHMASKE
T4 sequence (P08659 whole entry): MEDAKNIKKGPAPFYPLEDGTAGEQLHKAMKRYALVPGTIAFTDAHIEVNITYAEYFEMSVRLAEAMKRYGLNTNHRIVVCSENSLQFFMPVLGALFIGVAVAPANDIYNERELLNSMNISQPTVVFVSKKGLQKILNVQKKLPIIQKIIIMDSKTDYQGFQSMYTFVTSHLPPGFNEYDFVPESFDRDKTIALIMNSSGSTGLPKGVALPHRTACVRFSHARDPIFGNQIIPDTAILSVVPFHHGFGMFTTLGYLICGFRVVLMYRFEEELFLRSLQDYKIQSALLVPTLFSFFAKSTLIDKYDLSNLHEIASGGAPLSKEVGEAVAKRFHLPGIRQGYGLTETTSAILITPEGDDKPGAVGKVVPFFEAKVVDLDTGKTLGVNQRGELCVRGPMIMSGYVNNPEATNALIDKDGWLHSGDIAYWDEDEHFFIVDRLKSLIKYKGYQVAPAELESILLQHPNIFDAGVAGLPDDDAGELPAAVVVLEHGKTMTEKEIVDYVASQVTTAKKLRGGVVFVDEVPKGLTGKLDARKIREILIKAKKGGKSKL
T6 sequence (P49327 whole entry, the tested form may be a part): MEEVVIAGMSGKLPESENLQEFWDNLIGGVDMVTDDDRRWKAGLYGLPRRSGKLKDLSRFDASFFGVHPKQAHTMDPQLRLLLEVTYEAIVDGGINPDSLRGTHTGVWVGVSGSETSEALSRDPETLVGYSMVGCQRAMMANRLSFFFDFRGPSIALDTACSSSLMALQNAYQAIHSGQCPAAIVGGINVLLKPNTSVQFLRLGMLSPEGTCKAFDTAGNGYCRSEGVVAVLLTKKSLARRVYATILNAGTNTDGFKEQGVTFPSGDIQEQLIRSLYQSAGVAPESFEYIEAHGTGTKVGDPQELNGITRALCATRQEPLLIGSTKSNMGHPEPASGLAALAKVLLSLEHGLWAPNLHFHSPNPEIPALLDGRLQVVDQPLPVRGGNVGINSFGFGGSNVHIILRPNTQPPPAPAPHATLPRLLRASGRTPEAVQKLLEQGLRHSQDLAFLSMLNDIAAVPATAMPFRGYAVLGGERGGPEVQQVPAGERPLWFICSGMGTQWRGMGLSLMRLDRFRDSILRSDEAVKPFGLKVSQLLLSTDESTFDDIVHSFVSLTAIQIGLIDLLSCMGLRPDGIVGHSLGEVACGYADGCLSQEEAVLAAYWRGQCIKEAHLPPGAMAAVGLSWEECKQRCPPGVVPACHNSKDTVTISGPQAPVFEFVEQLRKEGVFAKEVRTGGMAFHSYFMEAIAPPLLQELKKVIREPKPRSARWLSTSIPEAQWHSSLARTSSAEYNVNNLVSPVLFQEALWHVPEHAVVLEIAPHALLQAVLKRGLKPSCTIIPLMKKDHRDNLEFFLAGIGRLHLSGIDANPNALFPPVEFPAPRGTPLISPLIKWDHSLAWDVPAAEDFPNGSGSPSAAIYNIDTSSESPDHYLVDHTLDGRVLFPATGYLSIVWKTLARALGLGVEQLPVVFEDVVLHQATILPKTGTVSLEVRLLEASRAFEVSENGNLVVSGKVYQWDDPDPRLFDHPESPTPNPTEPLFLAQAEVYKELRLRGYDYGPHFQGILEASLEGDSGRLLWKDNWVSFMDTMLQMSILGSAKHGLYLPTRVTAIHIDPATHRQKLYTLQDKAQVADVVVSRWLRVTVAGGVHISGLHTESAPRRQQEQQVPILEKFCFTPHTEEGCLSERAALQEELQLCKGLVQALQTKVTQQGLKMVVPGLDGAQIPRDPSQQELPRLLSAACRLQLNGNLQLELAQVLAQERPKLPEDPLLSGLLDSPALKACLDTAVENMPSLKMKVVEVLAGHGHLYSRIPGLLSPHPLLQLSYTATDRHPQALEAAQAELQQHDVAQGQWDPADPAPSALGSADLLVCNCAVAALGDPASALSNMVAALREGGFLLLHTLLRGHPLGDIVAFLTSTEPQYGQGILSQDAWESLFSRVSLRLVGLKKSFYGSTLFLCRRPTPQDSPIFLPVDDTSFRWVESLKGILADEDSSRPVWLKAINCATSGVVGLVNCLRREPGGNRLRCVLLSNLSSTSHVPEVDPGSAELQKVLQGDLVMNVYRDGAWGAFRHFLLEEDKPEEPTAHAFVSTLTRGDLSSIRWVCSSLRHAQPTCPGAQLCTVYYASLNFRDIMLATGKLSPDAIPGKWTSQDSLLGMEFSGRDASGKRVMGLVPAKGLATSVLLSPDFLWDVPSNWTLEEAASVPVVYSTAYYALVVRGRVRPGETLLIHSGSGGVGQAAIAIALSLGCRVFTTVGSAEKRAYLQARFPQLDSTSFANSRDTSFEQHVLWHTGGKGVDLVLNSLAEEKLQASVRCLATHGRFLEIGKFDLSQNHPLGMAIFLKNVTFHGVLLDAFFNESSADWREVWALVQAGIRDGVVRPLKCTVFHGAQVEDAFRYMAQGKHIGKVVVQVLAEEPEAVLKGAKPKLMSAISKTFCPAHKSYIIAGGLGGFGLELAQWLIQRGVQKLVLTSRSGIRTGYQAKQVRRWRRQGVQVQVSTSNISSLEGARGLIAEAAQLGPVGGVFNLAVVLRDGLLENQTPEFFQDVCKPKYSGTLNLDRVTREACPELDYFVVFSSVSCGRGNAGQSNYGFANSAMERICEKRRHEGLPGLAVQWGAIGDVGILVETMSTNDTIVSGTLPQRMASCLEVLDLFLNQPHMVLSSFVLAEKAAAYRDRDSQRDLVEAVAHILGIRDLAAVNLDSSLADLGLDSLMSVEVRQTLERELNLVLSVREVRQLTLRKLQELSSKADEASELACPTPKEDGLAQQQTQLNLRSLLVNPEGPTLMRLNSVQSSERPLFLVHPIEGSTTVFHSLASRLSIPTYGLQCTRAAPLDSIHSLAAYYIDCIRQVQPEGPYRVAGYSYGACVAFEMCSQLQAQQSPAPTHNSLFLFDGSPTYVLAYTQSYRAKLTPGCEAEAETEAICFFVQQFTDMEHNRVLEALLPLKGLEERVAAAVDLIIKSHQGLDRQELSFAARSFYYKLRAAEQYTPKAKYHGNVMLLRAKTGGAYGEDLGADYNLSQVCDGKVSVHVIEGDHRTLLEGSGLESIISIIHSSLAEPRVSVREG
T5 sequence (Q9Y570 whole entry): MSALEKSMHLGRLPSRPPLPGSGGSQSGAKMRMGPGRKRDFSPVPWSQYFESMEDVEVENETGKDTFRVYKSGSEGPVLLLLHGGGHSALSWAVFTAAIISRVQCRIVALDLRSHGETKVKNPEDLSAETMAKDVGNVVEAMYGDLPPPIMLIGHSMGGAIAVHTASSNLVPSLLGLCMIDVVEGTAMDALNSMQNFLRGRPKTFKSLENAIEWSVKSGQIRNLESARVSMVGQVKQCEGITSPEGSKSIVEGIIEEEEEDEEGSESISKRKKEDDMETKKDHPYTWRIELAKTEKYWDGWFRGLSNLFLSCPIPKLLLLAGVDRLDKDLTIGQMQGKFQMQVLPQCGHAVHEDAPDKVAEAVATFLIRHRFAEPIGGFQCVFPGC
Chain of Neuropeptides B/W receptor type 1 (P48145 whole entry): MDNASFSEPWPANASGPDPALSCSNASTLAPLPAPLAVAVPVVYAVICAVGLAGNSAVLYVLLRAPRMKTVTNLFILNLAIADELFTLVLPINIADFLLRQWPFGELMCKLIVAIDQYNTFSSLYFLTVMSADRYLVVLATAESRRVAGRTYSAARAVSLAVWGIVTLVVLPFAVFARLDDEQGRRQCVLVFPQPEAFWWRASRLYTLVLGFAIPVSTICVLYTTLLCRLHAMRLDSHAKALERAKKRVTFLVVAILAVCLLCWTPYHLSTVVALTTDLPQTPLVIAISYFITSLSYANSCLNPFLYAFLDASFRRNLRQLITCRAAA
Chain of Nonstructural protein 1 (Q194T2 whole entry): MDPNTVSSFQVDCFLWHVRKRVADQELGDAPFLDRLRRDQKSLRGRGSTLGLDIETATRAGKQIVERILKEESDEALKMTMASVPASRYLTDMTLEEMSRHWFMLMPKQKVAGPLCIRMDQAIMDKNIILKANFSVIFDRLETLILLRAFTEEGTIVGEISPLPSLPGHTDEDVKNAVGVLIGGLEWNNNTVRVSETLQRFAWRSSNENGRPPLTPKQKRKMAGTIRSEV
Chain of Melanin-concentrating hormone receptor 1 (Q99705 whole entry): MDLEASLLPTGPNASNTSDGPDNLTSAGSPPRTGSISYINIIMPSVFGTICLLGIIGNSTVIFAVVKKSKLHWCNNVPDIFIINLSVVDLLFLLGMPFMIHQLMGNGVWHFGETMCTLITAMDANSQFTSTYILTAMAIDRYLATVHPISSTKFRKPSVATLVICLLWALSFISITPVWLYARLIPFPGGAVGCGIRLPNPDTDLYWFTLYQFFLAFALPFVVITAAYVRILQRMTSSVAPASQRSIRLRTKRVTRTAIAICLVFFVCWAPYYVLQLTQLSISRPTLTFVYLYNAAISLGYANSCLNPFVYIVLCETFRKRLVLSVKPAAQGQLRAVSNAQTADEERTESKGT
Chain of Protein Rev (Human immunodeficiency virus type 1 group M subtype B (isolate WMJ22)(HIV-1), UniProt P05866) (P05866 whole entry): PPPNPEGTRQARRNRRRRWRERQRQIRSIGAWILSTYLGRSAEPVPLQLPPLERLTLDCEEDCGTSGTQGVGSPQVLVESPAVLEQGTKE
Chain of Protein Rev (Human immunodeficiency virus type 1 group M subtype B (isolate HXB2)(HIV-1), UniProt P04618) (P04618 whole entry): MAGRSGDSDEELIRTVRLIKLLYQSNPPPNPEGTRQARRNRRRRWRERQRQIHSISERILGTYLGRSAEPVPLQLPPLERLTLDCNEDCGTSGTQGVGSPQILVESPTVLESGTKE

## CCCCN(C(=O)c1ccc([N+](=O)[O-])o1)c1c(N)n(CC(C)C)c(=O)[nH]c1=O
Protein Rev [1]
  IC50: 7.26 µM (active)
[2]
  EC50: 16 µM (active)
[3]
  EC50: 18.7 µM (active)
[4]
  IC50: 2.74 µM (active)

## COc1ccccc1C(=O)N(CCC1CCCN1C)c1nc2ccccc2s1 (centres undefined)
[5]
  IC50: > 80 µM (inactive)
[6]
  IC50: 21.4 µM (not active)
[7]
  EC50: < 0.16 µM (active)
[8]
  IC50: 29.7 µM (not active)

## Cc1cc(C)n(CC(=O)NC2CCCc3c2cnn3-c2ccc(C)c(C)c2)n1 (centres undefined)
[9]
  AC50: 0.819 µM (active)

## Cc1ccc(/C=C2\SC(=S)N(CCCC(=O)Nc3ccccn3)C2=O)cc1
[10]
  IC50: 17.8 µM (not active)
[11]
  IC50: > 80 µM (inactive)
[7]
  EC50: 1.51 µM (active)

## O=C(c1ccc(Cl)cc1)N1CCCCC(Sc2nnc(-c3ccc4c(c3)OCO4)o2)C1=O (centres undefined)
[12]
  AC50: 5.75 µM (active)
[13]
  AC50: 2.78 µM (active)
[14]
  EC50: 4.07 µM (active)
HT-1080
  EC50: > 50 µM (not active)
[15]
  EC50: > 8 µM (not active)
[16]
  IC50: > 100 µM (not active)
HEK293 [17]
  EC50: 2.19 µM (active)
HEK293 [18]
  EC50: 4.25 µM (not active)
[19]
  AC50: 13.5 µM (active)

## CS(=O)(=O)/C(C#N)=C/c1ccccc1
[20]
  IC50: > 20 µM (not active)
[21]
  IC50: > 20 µM (inactive)

## C[C@@H](NC(=O)c1[nH]cnc1C(=O)Nc1ccc(Cl)cc1)c1ccccc1
Fatty acid synthase [22]
  IC50: 7.01 µM (active)
Fatty acid synthase [23]
  IC50: 8.13 µM (active)
[24]
  EC50: 19.9 µM (active)

## Cc1cccc(Nc2nc(-c3ccccn3)cs2)n1
[25]
  CC50: 21.8 µM (active)
[26]
  CC50: 11.6 µM (active)
[27]
  EC50: 8.56 µM (active)
[28]
  EC50: 7.24 µM (active)
cells
  IC50: 0.27 µM (active)
[29]
  IC50: > 22.3 µM (not active)
[30]
  IC50: 4.96 µM (active)
Nonstructural protein 1
  IC50: 29.6 µM (active)
[16]
  IC50: > 10 µM (inconclusive)
[31]
  EC50: 0.503 µM (active)

## CN(C)CC(O)COc1ccc(-c2ccc(C#N)cc2)cc1 (centres undefined)
[32]
  EC50: > 20 µM (not active)
Protein Rev [33]
  IC50: > 79.4 µM (not active)
[34]
  EC50: > 20 µM (not active)
